# Assay results published in PubChem BioAssay AID1259407 (Chemical Carcinogenesis Research Information System (CCRIS), 2018).
# Activity calls are given as the source filed them. No rule for the calls is given here.
# Tested on: CCRIS mutagenicity, Ames/micronucleus/aberration tests
# Experiment: CCRIS mutagenicity studies
# [1] = Test System: AMES SALMONELLA TYPHIMURIUM, Strain/Indicator: TA98, Metabolic Activation: NONE, Method: STANDARD PLATE
# [2] = Test System: AMES SALMONELLA TYPHIMURIUM, Strain/Indicator: TA100, Metabolic Activation: NONE, Method: STANDARD PLATE
# [3] = Test System: AMES SALMONELLA TYPHIMURIUM, Strain/Indicator: TA1535, Metabolic Activation: NONE, Method: STANDARD PLATE
# [4] = Test System: AMES SALMONELLA TYPHIMURIUM, Strain/Indicator: TA1538, Metabolic Activation: NONE, Method: STANDARD PLATE
# [5] = Test System: AMES SALMONELLA TYPHIMURIUM, Strain/Indicator: TA98, Metabolic Activation: S-9, Method: STANDARD PLATE
# [6] = Test System: AMES SALMONELLA TYPHIMURIUM, Strain/Indicator: TA100, Metabolic Activation: S-9, Method: STANDARD PLATE
smiles,measurement,setting,value
O=C1c2cccc(O)c2C(=O)c2c(O)cc(CO)cc21,mutagenic call,"Test System: AMES SALMONELLA TYPHIMURIUM, Strain/Indicator: TA97A, Metabolic Activation: NONE, Method: STANDARD PLATE",active; positive
same,mutagenic call,"Test System: AMES SALMONELLA TYPHIMURIUM, Strain/Indicator: TA97A, Metabolic Activation: RAT, LIVER, S-9, AROCLOR 1254, Method: STANDARD PLATE",active; positive
same,mutagenic call,[1],active; positive
same,mutagenic call,"Test System: AMES SALMONELLA TYPHIMURIUM, Strain/Indicator: TA98, Metabolic Activation: RAT, LIVER, S-9, PCB, Method: PREINCUBATION",inactive; negative
same,mutagenic call,"Test System: AMES SALMONELLA TYPHIMURIUM, Strain/Indicator: TA98, Metabolic Activation: RAT, LIVER, S-9, Method: PREINCUBATION",active; positive
same,mutagenic call,"Test System: AMES SALMONELLA TYPHIMURIUM, Strain/Indicator: TA100, Metabolic Activation: NONE, Method: PREINCUBATION",inactive; negative
same,mutagenic call,[2],inactive; negative
same,mutagenic call,"Test System: AMES SALMONELLA TYPHIMURIUM, Strain/Indicator: TA100, Metabolic Activation: RAT, LIVER, S-9, AROCLOR 1254, Method: STANDARD PLATE",inactive; negative
same,mutagenic call,"Test System: AMES SALMONELLA TYPHIMURIUM, Strain/Indicator: TA100, Metabolic Activation: RAT, LIVER, S-9, PCB, Method: PREINCUBATION",active; positive
same,mutagenic call,"Test System: AMES SALMONELLA TYPHIMURIUM, Strain/Indicator: TA102, Metabolic Activation: NONE, Method: STANDARD PLATE",inactive; negative
same,mutagenic call,"Test System: AMES SALMONELLA TYPHIMURIUM, Strain/Indicator: TA102, Metabolic Activation: RAT, LIVER, S-9, AROCLOR 1254, Method: STANDARD PLATE",active; positive
same,mutagenic call,"Test System: AMES SALMONELLA TYPHIMURIUM, Strain/Indicator: TA102, Metabolic Activation: RAT, LIVER, S-9, Method: PREINCUBATION",active; positive
same,mutagenic call,[3],inactive; negative
same,mutagenic call,"Test System: AMES SALMONELLA TYPHIMURIUM, Strain/Indicator: TA1535, Metabolic Activation: RAT, LIVER, S-9, AROCLOR 1254, Method: STANDARD PLATE",inactive; negative
same,mutagenic call,"Test System: AMES SALMONELLA TYPHIMURIUM, Strain/Indicator: TA1537, Metabolic Activation: NONE, Method: PREINCUBATION",active; positive
same,mutagenic call,"Test System: AMES SALMONELLA TYPHIMURIUM, Strain/Indicator: TA1537, Metabolic Activation: NONE, Method: STANDARD PLATE",active; positive
same,mutagenic call,"Test System: AMES SALMONELLA TYPHIMURIUM, Strain/Indicator: TA1537, Metabolic Activation: RAT, LIVER, S-9, Method: PREINCUBATION",active; positive
same,mutagenic call,"Test System: AMES SALMONELLA TYPHIMURIUM, Strain/Indicator: TA1538, Metabolic Activation: NONE, Method: PREINCUBATION",active; positive
same,mutagenic call,[4],active; positive
same,mutagenic call,"Test System: AMES SALMONELLA TYPHIMURIUM, Strain/Indicator: TA1538, Metabolic Activation: RAT, LIVER, S-9, AROCLOR 1254, Method: STANDARD PLATE",active; positive
same,mutagenic call,"Test System: AMES SALMONELLA TYPHIMURIUM, Strain/Indicator: TA1538, Metabolic Activation: RAT, LIVER, S-9, Method: PREINCUBATION",active; positive
same,mutagenic call,"Test System: AMES SALMONELLA TYPHIMURIUM, Strain/Indicator: TA1978, Metabolic Activation: NONE, Method: PREINCUBATION",active; positive
same,mutagenic call,"Test System: AMES SALMONELLA TYPHIMURIUM, Strain/Indicator: TA1978, Metabolic Activation: RAT, LIVER, S-9, Method: PREINCUBATION",inactive; negative
same,mutagenic call,"Test System: CHINESE HAMSTER V-79, Strain/Indicator: V-79 (HGPRT)/6-THIOGUANINE, Metabolic Activation: NONE",inactive; negative
same,mutagenic call,"Test System: CHINESE HAMSTER V-79, Strain/Indicator: V-79 (HPRT)/6-THIOGUANINE, Metabolic Activation: NONE",inactive; negative
same,mutagenic call,"Test System: CHINESE HAMSTER V-79, Strain/Indicator: V-79 (HPRT)/6-THIOGUANINE, Metabolic Activation: RAT, LIVER, S-9, AROCLOR 1254",inactive; negative
same,mutagenic call,"Test System: CHINESE HAMSTER V-79, Strain/Indicator: V-79/8-AZAGUANINE, Metabolic Activation: NONE, Method: STANDARD PLATE",active; positive
same,mutagenic call,"Test System: UDS RAT HEPATOCYTES, Strain/Indicator: THY INCORP, Metabolic Activation: NONE, Method: AUTORADIOGRAPHY",inactive; negative
same,mutagenic call,"Test System: UDS RAT HEPATOCYTES, Strain/Indicator: THY INCORP, Metabolic Activation: NONE, Method: IN VIVO-IN VITRO",inactive; negative
same,mutagenic call,"Test System: UDS RODENT HEPATOCYTES, Strain/Indicator: THY INCORP (NON-S-PHASE), Metabolic Activation: NONE, Method: AUTORADIOGRAPHY",active; positive
O=C1CCCc2cc3c(cc21)c([N+](=O)[O-])cc1ccccc13,mutagenic call,"Test System: AMES SALMONELLA TYPHIMURIUM, Strain/Indicator: TA98-1,8-DNP6, Metabolic Activation: NONE",inactive; negative
same,mutagenic call,"Test System: AMES SALMONELLA TYPHIMURIUM, Strain/Indicator: TA98-1,8-DNP6, Metabolic Activation: S-9",inactive; negative
same,mutagenic call,"Test System: AMES SALMONELLA TYPHIMURIUM, Strain/Indicator: TA98, Metabolic Activation: NONE",active; positive
same,mutagenic call,"Test System: AMES SALMONELLA TYPHIMURIUM, Strain/Indicator: TA98, Metabolic Activation: S-9",active; positive
same,mutagenic call,"Test System: AMES SALMONELLA TYPHIMURIUM, Strain/Indicator: TA98NR, Metabolic Activation: NONE",inactive; negative
same,mutagenic call,"Test System: AMES SALMONELLA TYPHIMURIUM, Strain/Indicator: TA98NR, Metabolic Activation: S-9",inactive; negative
same,mutagenic call,"Test System: AMES SALMONELLA TYPHIMURIUM, Strain/Indicator: TA100, Metabolic Activation: NONE",active; positive
same,mutagenic call,"Test System: AMES SALMONELLA TYPHIMURIUM, Strain/Indicator: TA100, Metabolic Activation: S-9",active; positive
same,mutagenic call,"Test System: AMES SALMONELLA TYPHIMURIUM, Strain/Indicator: TA100NR, Metabolic Activation: NONE",active; positive
same,mutagenic call,"Test System: AMES SALMONELLA TYPHIMURIUM, Strain/Indicator: TA100NR, Metabolic Activation: S-9",active; positive
CCOc1ccc2c(c1)C(C)=CC(C)(C)N2,mutagenic call,[1],inactive; negative
same,mutagenic call,[5],inactive; negative
same,mutagenic call,[2],inactive; negative
same,mutagenic call,[6],inactive; negative
CC(=O)Nc1ccc(-c2ccc(NO)cc2)cc1,mutagenic call,"Test System: CHINESE HAMSTER OVARY, Strain/Indicator: CHO-K1-BH4 (HGPRT), Metabolic Activation: NONE, Method: SUSPENSION",active; positive
CC(=O)NSc1c2cc(O)ccc2nc2ccc(O)cc12,mutagenic call,"Test System: AMES SALMONELLA TYPHIMURIUM, Strain/Indicator: TA97A, Metabolic Activation: NONE, Method: PREINCUBATION",active; positive
CCC(C)Cl (stereo not given),mutagenic call,"Test System: Mouse lymphoma, Strain/Indicator: L5178Y (tk+/tk-), Metabolic Activation: None, Method: Suspension/plate",inactive; negative
same,mutagenic call,"Test System: Mouse lymphoma, Strain/Indicator: L5178Y (tk+/tk-), Metabolic Activation: Rat, Liver, S-9, Aroclor 1254, Method: Suspension/plate",inactive; negative
ONc1ccc2ccccc2c1,mutagenic call,[1],active; positive
same,mutagenic call,[5],active; positive
same,mutagenic call,[2],active; positive
same,mutagenic call,[6],active; positive
same,mutagenic call,[3],active; positive
same,mutagenic call,[4],active; positive
COc1ccc2c(c1OC)c(=O)n(C)c1c3cc4c(cc3ccc21)OCO4,mutagenic call,"Test System: AMES SALMONELLA TYPHIMURIUM, Strain/Indicator: TA100, Metabolic Activation: RAT, LIVER, S-9, PHENOBARBITAL AND BETA-NAPHTHOFLAVONE, Method: PREINCUBATION",active; positive
